Consider 26 compounds from patent publication US10654884B2 (Vitae Pharmaceuticals, Inc., priority 2014, dated 2020).

SMILES strings stand for the structures. Read-outs that look alike come from different tables or passages of the source.

One test addresses T1, human CD73 (Homo sapiens, UniProt P21589).
T1 construct: purchased R&D Systems 5795-EN-010
T1 sequence (P21589 27-549): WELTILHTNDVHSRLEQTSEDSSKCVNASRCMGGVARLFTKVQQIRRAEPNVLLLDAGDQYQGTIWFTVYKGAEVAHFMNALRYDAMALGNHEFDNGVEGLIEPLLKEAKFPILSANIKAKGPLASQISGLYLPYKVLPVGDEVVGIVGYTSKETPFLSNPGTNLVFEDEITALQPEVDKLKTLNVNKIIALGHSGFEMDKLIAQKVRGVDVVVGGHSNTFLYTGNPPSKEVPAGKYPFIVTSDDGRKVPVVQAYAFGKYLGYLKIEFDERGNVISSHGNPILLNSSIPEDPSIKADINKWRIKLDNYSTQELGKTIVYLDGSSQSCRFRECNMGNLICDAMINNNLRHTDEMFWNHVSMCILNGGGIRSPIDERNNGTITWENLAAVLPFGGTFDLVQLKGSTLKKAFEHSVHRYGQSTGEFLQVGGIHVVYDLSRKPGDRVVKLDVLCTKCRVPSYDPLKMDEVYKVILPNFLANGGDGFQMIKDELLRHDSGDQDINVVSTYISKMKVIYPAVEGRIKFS
The experiment in a line: Inhibition of 5′-Nucleotidase Activity of CD73 (Assay 1). It counts as biochemical. The note with it: 50 μM CMP, 20 min at RT, malachite green readout. As for the experimental part:
Inhibition of 5′-Nucleotidase Activity of CD73 (Assay 1)
Compounds of the present invention were tested for the ability to inhibit CD73 enzyme activity. Tested compounds were dissolved in DMSO (50× final concentration), and 3.2 μL of the solutions added to 96-well polystyrene plates. To these wells were added, 100 μL of human CD73 (R&D Systems Cat. No. 5795-EN-010) and 57 μL of cytidine-5′-monophosphate (CMP) solutions in assay buffer (25 mM Tris-HCl, pH 7.4, 0.005% Brij-35) were added to achieve final concentrations in the assay of 4 ng/ml CD73 and 50 μM of CMP. The assay mixture was incubated for 20 min at RT. The reaction was stopped by addition of 40 μL of malachite green reagent which was prepared by mixing together 10 ml 2M H2SO4, 2.5 ml of 15% ammonium molybdate and 0.2 ml of 11% Tween-20. The mixture was agitated vigorously for 10 min at RT, and absorbance at 620 nm was determined on a microplate spectrophotometer. […] The IC50 values were derived using a non-linear 4 parameter logistic model (XLFit software, IDBS) and correspond to the inflection points on dose-response curves.

For test [1], the target named is T2, CD73 on U138 neuroglioma cells (Homo sapiens, UniProt P21589).
T2 construct: U138 neuroglioma cells, which express CD73 on their surface; endogenous in cells; host or cells: U138 neuroglioma cells (ATCC)
T2 sequence (P21589 27-549): T1 sequence (P21589 27-549)
Put plainly: Inhibition of Ecto-5′-Nucleotidase Activity in U138 Neuroglioma Cells (Assay 2). It counts as cell-based. As for the experimental part:
Inhibition of Ecto-5′-Nucleotidase Activity in U138 Neuroglioma Cells (Assay 2)
U138 cells were obtained from the American Type Culture Collection (ATCC) (Manassas, Va.), and cultured in complete growth media (DMEM, 10% FBS, 1 mM L-glutamine, 100 U penicillin-streptomycin) at 37° C., 5% CO2. The day before the experiment, cells were seeded at 2,500 cells/well in 100 μL of complete media into 96-well plates. Cells were washed twice with 200 μL of assay buffer (20 mM HEPES, pH 7.4, 137 mM NaCl, 5.4 mM KCl, 1.3 mM CaCl2, 4.2 mM NaHCO3, 1 mg/mL glucose) to remove residual inorganic phosphate. After washing, assays contained serial dilutions of test compounds and 50 μM of cytidine-5′-monophosphate (CMP) in a total volume of 200 μL of assay buffer, with a final DMSO concentration ≤0.1%. After 2 hr at 37° C., 5% CO2, 100 μL of supernatant was removed from the cells and the concentration of inorganic phosphate was determined using malachite green reagent. IC50 values for test compounds were determined from nonlinear regression fits of the data using XLfit (IDBS).

The mark [2] stands for this setting: human CD73 4 ng/ml, read-out: Assay 1: IC50, inhibition of 5′-nucleotidase activity of CD73.
Setting [3] is: 50 μM CMP, 2 hr at 37° C., malachite green readout, read-out: Assay 2: IC50, inhibition of ecto-5′-nucleotidase activity in U138 neuroglioma cells.
The mark [4] stands for this setting: Assay 1: IC50, inhibition of 5′-nucleotidase activity of CD73, human CD73 4 ng/ml.

Turning to `CCOC(=O)[C@H](OC[C@H]1O[C@@H](n2cnc3c(N)nc(Cl)nc32)[C@H](O)[C@@H]1O)P(=O)(O)O` (single isomer, unassigned) [1, isomer 1], the IC50 (at human CD73 (setting [2]); in test [1] (setting [3])) was under 100 nM each time. Turning to `CCOC(=O)[C@@H](OC[C@H]1O[C@@H](n2cnc3c(N)nc(Cl)nc32)[C@H](O)[C@@H]1O)P(=O)(O)O` (single isomer, unassigned) [1, isomer 2], the IC50 (on human CD73 (setting [2]); in test [1] (setting [3])) was 100 to 1000 nM in each case. For the compound `CCOC(=O)[C@](C)(OC[C@H]1O[C@@H](n2cnc3c(N)nc(Cl)nc32)[C@H](O)[C@@H]1O)P(=O)(O)O` (single isomer, unassigned) [Example 9], the IC50 was under 100 nM on human CD73 (setting [2]) and 100 to 1000 nM in test [1] (setting [3]). Taken in the same sequence, the figures for `CCOC(=O)[C@@](C)(OC[C@H]1O[C@@H](n2cnc3c(N)nc(Cl)nc32)[C@H](O)[C@@H]1O)P(=O)(O)O` (single isomer, unassigned) [Example 9a] were 100 to 1000 nM and 100 to 1000 nM. On to `CS(=O)(=O)C(OC[C@H]1O[C@@H](n2cnc3c(N)nc(Cl)nc32)[C@H](O)[C@@H]1O)P(=O)(O)O` (single isomer, unassigned) [Example 10], for which the IC50 (at human CD73 (setting [2]); in test [1] (setting [3])) was 100 to 1000 nM each time. For the compound `CCS(=O)(=O)C(OC[C@H]1O[C@@H](n2cnc3c(N)nc(Cl)nc32)[C@H](O)[C@@H]1O)P(=O)(O)O` (single isomer, unassigned) [Example 11], the values for the IC50 (at human CD73 (setting [2]); in test [1] (setting [3])) were under 100 nM and 100 to 1000 nM, respectively. Regarding `CCS(=O)(=O)C(OC[C@H]1O[C@@H](n2cnc3c(N)nc(Cl)nc32)[C@H](O)[C@@H]1O)P(=O)(O)O` (single isomer, unassigned) [Example 11a], the IC50 at human CD73 (setting [2]) is 100 to 1000 nM; in test [1] (setting [3]) it was over 1000 nM. On to `CCOC(=O)[C@@H](OC[C@H]1C[C@@H](n2cnc3cccc(Cl)c3c2=O)[C@H](O)[C@@H]1O)P(=O)(O)O` (single isomer, unassigned) [Example 70a], for which the IC50 on human CD73 (setting [2]) was over 1000 nM. `CCOC(=O)[C@@H](OC[C@H]1C[C@@H](n2cnc3cccc(Br)c3c2=O)[C@H](O)[C@@H]1O)P(=O)(O)O` (single isomer, unassigned) [Example 72a]: the IC50 on human CD73 (setting [2]) was over 1000 nM. In the case of `CCOC(=O)[C@@H](OC[C@H]1C[C@@H](n2cnc3cccc(C#N)c3c2=O)[C@H](O)[C@@H]1O)P(=O)(O)O` (single isomer, unassigned) [Example 73a], the IC50 on human CD73 (setting [2]) was over 1000 nM.

As to `CCOC(=O)[C@@](CC(=O)O)(OC[C@H]1O[C@@H](n2cnc3c(N)nc(F)nc32)[C@H](O)[C@@H]1O)P(=O)(O)O` (single isomer, unassigned) [Example 79a], on human CD73 (setting [2]), the IC50 is 100 to 1000 nM. As for `CCNc1nc(Cl)nc2c1ncn2[C@@H]1O[C@H](CO[C@@](C)(C(=O)OCC)P(=O)(O)OCC)[C@@H](O)[C@H]1O` (single isomer, unassigned) [Example 80], the IC50 against human CD73 (setting [4]) is over 1000 nM. Take `CCNc1nc(Cl)nc2c1ncn2[C@@H]1O[C@H](CO[C@](C)(C(=O)OCC)P(=O)(O)OCC)[C@@H](O)[C@H]1O` (single isomer, unassigned) [Example 80a]: the IC50 against human CD73 (setting [4]) was over 1000 nM. With `CCOC(=O)C(OC[C@H]1O[C@@H](n2cnc3cc(Cl)c(Cl)cc32)[C@H](O)[C@@H]1O)P(=O)(O)O` (single isomer, unassigned) [Example 81], on human CD73 (setting [2]), the IC50 was over 1000 nM. Regarding `CCOC(=O)C(OC[C@H]1O[C@@H](n2cnc3cc(Cl)c(Cl)cc32)[C@H](O)[C@@H]1O)P(=O)(O)O` (single isomer, unassigned) [Example 81a], on human CD73 (setting [2]), the half-maximal inhibitory concentration (IC50) was over 1000 nM. For `CCOC(=O)C(OC[C@H]1O[C@@H](n2cnc3ccc(Cl)nc32)[C@H](O)[C@@H]1O)P(=O)(O)O` (single isomer, unassigned) [Example 87a], on human CD73 (setting [2]), the IC50 was over 1000 nM. `Nc1ncnc2c1ncn2[C@@H]1O[C@H](COP(=O)(O)CP(=O)(O)O)[C@@H](O)[C@H]1O` [APCP, adenosine 5′-(α,β-methylene)diphosphate, reference compound] came in with an IC50 in test [1] (IC50 value for APCP (standard), standard in each experiment, typical range) of 12 to 25 nM. On to `Nc1ncnc2c1ncn2[C@@H]1O[C@H](COC(C(=O)O)C(=O)O)[C@@H](O)[C@H]1O` [Example 8, 2-(((2R,3S,4R,5R)-5-(6-amino-9H-purin-9-yl)-3,4-dihydroxytetrahydrofuran-2-yl)methoxy)malonic acid], for which, at human CD73 (setting [2]), the IC50 is over 1000 nM. Regarding `CNC(=O)C(OC[C@H]1O[C@@H](n2ccc(=O)n(C)c2=O)[C@H](O)[C@@H]1O)P(=O)(O)O` (stereo partly drawn) [Example 31, (1-(((2R,3S,4R,5R)-3,4-dihydroxy-5-(3-methyl-2,4-dioxo-3,4-dihydropyrimidin-1(2H)-yl)tetrahydrofuran-2-yl)methoxy)-2-(methylamino)-2-oxoethyl)phosphonic Acid], the half-maximal inhibitory concentration (IC50) on human CD73 (setting [2]) was over 1000 nM. The same measure, in the same setting: the same measure for `CCNC(=O)C(OC[C@H]1O[C@@H](n2ccc(=O)n(C)c2=O)[C@H](O)[C@@H]1O)P(=O)(O)O` (stereo partly drawn) [Example 32, (1-(((2R,3S,4R,5R)-3,4-dihydroxy-5-(3-methyl-2,4-dioxo-3,4-dihydropyrimidin-1(2H)-yl)tetrahydrofuran-2-yl)methoxy)-2-(ethylamino)-2-oxoethyl)phosphonic Acid]: over 1000 nM; for `Nc1ncnc2c1ncn2[C@@H]1O[C@H](COC(C(=O)NO)P(=O)(O)O)[C@@H](O)[C@H]1O` (stereo partly drawn) [Example 35, (1-(((2R,3S,4R,5R)-5-(6-amino-9H-purin-9-yl)-3,4-dihydroxytetrahydrofuran-2-yl)methoxy)-2-(hydroxyamino)-2-oxoethyl)phosphonic Acid]: over 1000 nM; for `COC(=O)C(SC[C@H]1O[C@@H](n2cnc3c(N)ncnc32)[C@H](O)[C@@H]1O)P(=O)(O)O` (stereo partly drawn) [Example 56, (1-((((2S,3S,4R,5R)-5-(6-amino-9H-purin-9-yl)-3,4-dihydroxytetrahydrofuran-2-yl)methyl)thio)-2-methoxy-2-oxoethyl)phosphonic Acid]: over 1000 nM.

As for `CC(C)Nc1ncnc2c1ncn2[C@@H]1O[C@H](COC(C(=O)O)P(=O)(O)O)[C@@H](O)[C@H]1O` (stereo partly drawn) [Example 64, 2-(((2R,3S,4R,5R)-3,4-dihydroxy-5-(6-(isopropylamino)-9H-purin-9-yl)tetrahydrofuran-2-yl)methoxy)-2-phosphonoacetic acid], the IC50 on human CD73 (setting [2]) is over 1000 nM.

Take `O=C(O)C(OC[C@H]1C[C@@H](n2cnc3cccc(Cl)c3c2=O)[C@H](O)[C@@H]1O)P(=O)(O)O` (stereo partly drawn) [Example 71, 2-(((1R,2R,3S,4R)-4-(5-chloro-4-oxoquinazolin-3(4H)-yl)-2,3-dihydroxycyclopentyl)methoxy)-2-phosphonoacetic acid]: on human CD73 (setting [2]), the IC50 is over 1000 nM. On the same count and under the same terms, under `O=C(O)C(OC[C@H]1C[C@@H](n2cnc3cccc(Cl)c3c2=O)[C@H](O)[C@@H]1O)C(=O)O` [Example 74, 2-(((1R,2R,3S,4R)-4-(5-chloro-4-oxoquinazolin-3(4H)-yl)-2,3-dihydroxycyclopentyl)methoxy)malonic acid] stands over 1000 nM; under `CCNC(=O)C(OC[C@H]1C[C@@H](n2cnc3c(NCC)ncnc32)[C@H](O)[C@@H]1O)P(=O)(O)O` (stereo partly drawn) [Example 75, (2-(ethylamino)-1-(((1R,2R,3S,4R)-4-(6-(ethylamino)-9H-purin-9-yl)-2,3-dihydroxycyclopentyl)methoxy)-2-oxoethyl)phosphonic Acid], over 1000 nM.

As a reminder, the IC50 is the concentration that inhibits the measured activity by half.
